These results are taken from ChEMBL document CHEMBL3813591, “Tasiamide F, a potent inhibitor of cathepsins D and E from a marine cyanobacterium” (Bioorg Med Chem, 2016).

The species entered for experiment [1] is Homo sapiens. As to the kind of experiment: Selectivity ratio of IC50 for human liver cathepsin D to IC50 for human recombinant cathepsin E.
The next experiment concerns the target Beta-secretase 1 (Homo sapiens, UniProt P56817). As to the kind of experiment: Inhibition of BACE1 (unknown origin) using peptide substrate by time-course measurement-based fluorescence analysis.
The species named for experiment [2] is Homo sapiens. In words: Selectivity ratio of IC50 for BACE1 (unknown origin) to IC50 for human liver cathepsin D.
Another experiment deals with Cathepsin D (Homo sapiens, UniProt P07339). As to the kind of experiment: Inhibition of human liver cathepsin D using Mca-Gly-Lys-Pro-Ile-Leu-Phe-Phe-Arg-Leu-Lys-(Dnp)-D-Arg-NH2 as substrate preincubated for 15 mins followed by substrate addition measured every 5 mins for 120 mins by fluorescence analysis.
Cathepsin D, sequence (P07339 65-162 limits assumed): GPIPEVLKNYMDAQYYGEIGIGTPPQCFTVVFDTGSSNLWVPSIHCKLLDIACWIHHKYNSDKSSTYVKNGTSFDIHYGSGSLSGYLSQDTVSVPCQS
Cathepsin D, sequence (P07339 169-412 limits assumed): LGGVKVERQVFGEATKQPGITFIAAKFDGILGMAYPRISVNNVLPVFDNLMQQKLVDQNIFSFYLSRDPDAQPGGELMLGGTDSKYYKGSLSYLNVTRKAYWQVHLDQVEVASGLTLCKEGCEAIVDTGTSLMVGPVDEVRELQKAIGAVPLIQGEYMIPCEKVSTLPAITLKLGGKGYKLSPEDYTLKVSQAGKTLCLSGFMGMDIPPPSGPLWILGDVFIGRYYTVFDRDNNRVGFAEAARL
Another experiment addresses T1, Cathepsin E (Homo sapiens, UniProt P14091).
T1 sequence (P14091 whole entry): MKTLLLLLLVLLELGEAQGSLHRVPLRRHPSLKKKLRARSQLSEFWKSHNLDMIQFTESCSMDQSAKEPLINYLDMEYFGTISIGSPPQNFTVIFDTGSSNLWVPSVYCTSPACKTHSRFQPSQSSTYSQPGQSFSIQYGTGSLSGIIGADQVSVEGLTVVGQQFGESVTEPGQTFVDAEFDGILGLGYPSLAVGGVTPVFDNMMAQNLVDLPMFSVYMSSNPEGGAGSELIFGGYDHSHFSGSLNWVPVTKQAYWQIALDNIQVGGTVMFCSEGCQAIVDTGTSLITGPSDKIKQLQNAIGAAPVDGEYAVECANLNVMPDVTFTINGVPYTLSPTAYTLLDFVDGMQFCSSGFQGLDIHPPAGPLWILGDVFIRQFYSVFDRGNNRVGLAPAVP
As to the kind of experiment: Inhibition of human recombinant cathepsin E using Mca-Gly-Lys-Pro-Ile-Leu-Phe-Phe-Arg-Leu-Lys-(Dnp)-D-Arg-NH2 as substrate preincubated for 15 mins followed by substrate addition measured every 5 mins for 120 mins by fluorescence analysis.

Experiment [3] is filed under the species Homo sapiens. As to the kind of experiment: Selectivity ratio of IC50 for BACE1 (unknown origin) to IC50 for human recombinant cathepsin E.

SMILES strings stand for the structures. pIC50: −log10 of the molar value. Starred links: 1 amine or outer side, 2 acyl side, 3 side chain; linkers in the order of their positions; H or OH if unused. Non-standard residues stand in square brackets, D forms with d. Residues, ends and D or L forms follow the SMILES beside them. Ahppa(3S,4S) = O=C(C[C@H](O)[C@H](Cc1ccccc1)N[*:1])[*:2]; dNMeF = CN[C@H](Cc1ccccc1)C(=O)O; NMeQ = CN[C@@H](CCC(N)=O)C(=O)O; Lac = C[C@H](O)C(=O)O

Beta-secretase 1, sequence (P56817 whole entry): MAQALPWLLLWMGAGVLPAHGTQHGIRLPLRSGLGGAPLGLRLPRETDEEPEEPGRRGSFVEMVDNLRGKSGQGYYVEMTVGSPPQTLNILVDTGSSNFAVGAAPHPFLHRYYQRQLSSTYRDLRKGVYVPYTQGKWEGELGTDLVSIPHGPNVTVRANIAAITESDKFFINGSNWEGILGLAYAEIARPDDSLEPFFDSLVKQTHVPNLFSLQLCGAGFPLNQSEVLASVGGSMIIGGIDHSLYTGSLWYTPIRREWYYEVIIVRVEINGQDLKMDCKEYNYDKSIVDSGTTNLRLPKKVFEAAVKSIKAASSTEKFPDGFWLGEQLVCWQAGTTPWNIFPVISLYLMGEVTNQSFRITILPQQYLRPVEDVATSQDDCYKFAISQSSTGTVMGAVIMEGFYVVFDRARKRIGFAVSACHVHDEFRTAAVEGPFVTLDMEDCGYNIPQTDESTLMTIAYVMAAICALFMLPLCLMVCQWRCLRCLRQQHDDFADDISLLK

A word on the pIC50: it is the negative decadic logarithm of the IC50, by convention in mol/L. As for `CC[C@H](C)[C@H](NC(=O)C[C@H](O)[C@H](Cc1ccccc1)NC(=O)[C@H](CCC(N)=O)N(C)C(=O)[C@@H](NC(=O)[C@H](C)O)[C@@H](C)CC)C(=O)NCC(=O)N(C)[C@H](Cc1ccccc1)C(=O)N1CCC[C@H]1C(=O)OC` (H-[Lac]I[NMeQ][Ahppa(3S,4S)]IG[dNMeF]P-OMe), the Ratio IC50 was 2.4 in the experiment filed under Homo sapiens [1], 12 in the experiment listed under Homo sapiens [2] and 30 in the experiment filed under Homo sapiens [3]. In addition, the pIC50 is 6.16 against Beta-secretase 1, 7.24 at Cathepsin D and 7.64 at Cathepsin E.
